Laboratory results reported in BindingDB's records for doi:10.1021/acs.jmedchem.6b01385 (Medical University of South Carolina, 2016).

Target: Histone deacetylase 3 (Homo sapiens, UniProt O15379)
Test: Allosteric inhibition of C-terminal His-tagged recombinant human HDAC3 expressed in Sf9 cells pre-incubated for 2 hrs before acetylated lysine-aminomethyl coumarin-BOC addition and measured after 2 hrs by fluorescence based assay

Chain of Histone deacetylase 3 (O15379 whole entry): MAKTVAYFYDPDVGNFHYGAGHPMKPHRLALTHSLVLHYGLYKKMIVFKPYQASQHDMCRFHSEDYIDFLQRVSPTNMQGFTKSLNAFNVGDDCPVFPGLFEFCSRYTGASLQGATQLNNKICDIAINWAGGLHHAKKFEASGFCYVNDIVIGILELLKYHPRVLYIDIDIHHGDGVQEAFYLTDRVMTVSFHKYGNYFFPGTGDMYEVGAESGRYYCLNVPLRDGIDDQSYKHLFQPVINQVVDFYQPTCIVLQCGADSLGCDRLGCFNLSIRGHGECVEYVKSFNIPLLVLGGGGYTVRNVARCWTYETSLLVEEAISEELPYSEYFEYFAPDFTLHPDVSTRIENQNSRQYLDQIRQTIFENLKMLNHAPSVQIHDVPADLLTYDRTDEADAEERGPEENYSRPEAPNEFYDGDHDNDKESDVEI

Compound: CCCCCCCCCCNNC(=O)c1ccc(CNC(=O)c2ccccc2)cc1 [N-(4-(2-decylhydrazine-1-carbonyl)benzyl)benzamide]
- IC50: > 10 µM
